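Cells were grown in 96-well plates and exposed to each compound for 48 hours at five concentrations; endpoints were interpolated linearly between bracketing concentrations, or set to the highest concentration if not reached. The concentration for 50% growth inhibition is given as GI50.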 The source made the active and inactive calls. Cut-off read from the data, not from the text of the source: active = GI50 up to about 1.1 µM and inactive = higher.
Key:
Assay in all cases: inhibition of tumour cell growth, NCI panel, 48 h
HT-29 = tested on: HT-29
HL-60 = tested on: HL-60
EKVX = tested on: EKVX
HOP-92 = tested on: HOP-92
CAKI-1 = tested on: CAKI-1
NCI-H226 = tested on: NCI-H226
MCF7 = tested on: MCF7
MDA-N = tested on: MDA-N
SN12C = tested on: SN12C
RPMI-8226 = tested on: RPMI-8226
Malme-3M = tested on: Malme-3M
PC-3 = tested on: PC-3
M14 = tested on: M14
MDA-MB-435 = tested on: MDA-MB-435
NCI-H23 = tested on: NCI-H23
OVCAR-5 = tested on: OVCAR-5
NCI-H522 = tested on: NCI-H522
786-0 = tested on: 786-0
HOP-62 = tested on: HOP-62
OVCAR-8 = tested on: OVCAR-8
HCC 2998 = tested on: HCC 2998
SF-539 = tested on: SF-539
COLO 205 = tested on: COLO 205
A498 = tested on: A498
LOX IMVI = tested on: LOX IMVI
SK-MEL-2 = tested on: SK-MEL-2
SNB-19 = tested on: SNB-19
SK-MEL-5 = tested on: SK-MEL-5
HCT-15 = tested on: HCT-15
T47D = tested on: T47D
UACC-62 = tested on: UACC-62
MOLT-4 = tested on: MOLT-4
SF-295 = tested on: SF-295
NCI-H460 = tested on: NCI-H460
SK-OV-3 = tested on: SK-OV-3
TK-10 = tested on: TK-10
K562 = tested on: K562
U-251 = tested on: U-251
HCT-116 = tested on: HCT-116
SW-620 = tested on: SW-620
SNB-75 = tested on: SNB-75
IGROV-1 = tested on: IGROV-1
DU-145 = tested on: DU-145
SK-MEL-28 = tested on: SK-MEL-28
CCRF-CEM = tested on: CCRF-CEM
MDA-MB-231 = tested on: MDA-MB-231
SF-268 = tested on: SF-268
ACHN = tested on: ACHN
UO-31 = tested on: UO-31
RXF 393 = tested on: RXF 393
NCI/ADR-RES = tested on: NCI/ADR-RES
UACC-257 = tested on: UACC-257
A549 = tested on: A549
OVCAR-3 = tested on: OVCAR-3
Hs-578T = tested on: Hs-578T
BT-549 = tested on: BT-549
OVCAR-4 = tested on: OVCAR-4
KM12 = tested on: KM12
SR = tested on: SR

With CN(C)c1ccc(/C=C(\NC(=O)c2ccccc2)C(=O)Nc2cccc(C(=O)NCCCO)c2)cc1 the GI50 (HT-29) was > 100 µM (inactive), the GI50 (HL-60) was > 100 µM (inactive) and the GI50 (EKVX) was > 100 µM (inactive). The GI50 (HOP-92) was > 100 µM (inactive), the GI50 (CAKI-1) was > 100 µM (inactive) and the GI50 (NCI-H226) was > 100 µM (inactive). The GI50 (MCF7) was > 100 µM (inactive), the GI50 (MDA-N) was > 100 µM (inactive) and the GI50 (SN12C) was > 100 µM (inactive). The GI50 (RPMI-8226) was > 100 µM (inactive), the GI50 (Malme-3M) was > 100 µM (inactive) and the GI50 (PC-3) was > 100 µM (inactive). The GI50 (M14) was > 100 µM (inactive), the GI50 (MDA-MB-435) was > 100 µM (inactive) and the GI50 (NCI-H23) was > 100 µM (inactive). The GI50 (OVCAR-5) was > 100 µM (inactive), the GI50 (NCI-H522) was > 100 µM (inactive) and the GI50 (786-0) was > 100 µM (inactive). The GI50 (HOP-62) was > 100 µM (inactive), the GI50 (OVCAR-8) was > 100 µM (inactive) and the GI50 (HCC 2998) was > 100 µM (inactive). For the same compound, the GI50 (SF-539) was > 100 µM (inactive), the GI50 (COLO 205) was > 100 µM (inactive) and the GI50 (A498) was > 100 µM (inactive). For the same compound, the GI50 (LOX IMVI) was > 100 µM (inactive), the GI50 (SK-MEL-2) was > 100 µM (inactive) and the GI50 (SNB-19) was > 100 µM (inactive). For the same compound, the GI50 (SK-MEL-5) was > 100 µM (inactive), the GI50 (HCT-15) was > 100 µM and the GI50 (T47D) was > 100 µM (inactive). The GI50 (UACC-62) was > 100 µM (inactive), the GI50 (MOLT-4) was > 100 µM (inactive) and the GI50 (SF-295) was > 100 µM (inactive). For the same compound, the GI50 (NCI-H460) was > 100 µM (inactive), the GI50 (SK-OV-3) was > 100 µM (inactive) and the GI50 (TK-10) was > 100 µM (inactive). The GI50 (K562) was > 100 µM (inactive), the GI50 (U-251) was > 100 µM (inactive) and the GI50 (HCT-116) was > 100 µM (inactive). For the same compound, the GI50 (SW-620) was > 100 µM (inactive), the GI50 (SNB-75) was > 100 µM (inactive) and the GI50 (IGROV-1) was > 100 µM (inactive). For the same compound, the GI50 (DU-145) was > 100 µM (inactive), the GI50 (SK-MEL-28) was > 100 µM (inactive) and the GI50 (CCRF-CEM) was > 100 µM (inactive). The GI50 (MDA-MB-231) was > 100 µM (inactive), the GI50 (SF-268) was > 100 µM (inactive) and the GI50 (ACHN) was > 100 µM (inactive). For the same compound, the GI50 (UO-31) was > 100 µM (inactive), the GI50 (RXF 393) was > 100 µM (inactive) and the GI50 (NCI/ADR-RES) was > 100 µM (inactive). For the same compound, the GI50 (UACC-257) was > 100 µM (inactive), the GI50 (A549) was > 100 µM (inactive) and the GI50 (OVCAR-3) was > 100 µM (inactive). The GI50 (Hs-578T) was > 100 µM (inactive), the GI50 (BT-549) was > 100 µM (inactive) and the GI50 (OVCAR-4) was > 100 µM (inactive). The GI50 (KM12) was > 100 µM (inactive).

For C=C1C(=O)C([Si](C)(C)C)=C2C=C(C)C3(CC3)C12C (stereo not drawn), the GI50 (HT-29) was 18.2 µM (inactive), the GI50 (HL-60) was 7.08 µM (inactive) and the GI50 (EKVX) was 4.69 µM (inactive). The GI50 (CAKI-1) was 35.6 µM (inactive), the GI50 (NCI-H226) was 32 µM (inactive) and the GI50 (MCF7) was 18.6 µM (inactive). The GI50 (MDA-N) was 22.7 µM (inactive), the GI50 (SN12C) was 40.9 µM (inactive) and the GI50 (RPMI-8226) was 3.88 µM (inactive). For the same compound, the GI50 (Malme-3M) was 14.7 µM (inactive), the GI50 (PC-3) was 3.36 µM (inactive) and the GI50 (M14) was 39.8 µM (inactive). The GI50 (MDA-MB-435) was 12.9 µM (inactive), the GI50 (NCI-H23) was 46.6 µM (inactive) and the GI50 (OVCAR-5) was > 100 µM (inactive). The GI50 (NCI-H522) was 14 µM (inactive), the GI50 (786-0) was 95.3 µM (inactive) and the GI50 (SR) was 0.0279 µM (active). For the same compound, the GI50 (HOP-62) was > 100 µM (inactive), the GI50 (OVCAR-8) was 57.4 µM (inactive) and the GI50 (HCC 2998) was 38.9 µM (inactive). The GI50 (COLO 205) was 14.2 µM (inactive), the GI50 (A498) was 31 µM (inactive) and the GI50 (LOX IMVI) was 22.6 µM (inactive). For the same compound, the GI50 (SK-MEL-2) was 15.6 µM (inactive), the GI50 (SNB-19) was > 100 µM (inactive) and the GI50 (SK-MEL-5) was 19.4 µM (inactive). The GI50 (HCT-15) was 35.8 µM, the GI50 (T47D) was > 100 µM (inactive) and the GI50 (UACC-62) was 14.7 µM (inactive). For the same compound, the GI50 (MOLT-4) was 1.12 µM (inactive), the GI50 (SF-295) was 30.4 µM (inactive) and the GI50 (NCI-H460) was 47.6 µM (inactive). The GI50 (TK-10) was 67.1 µM (inactive), the GI50 (K562) was 19.1 µM (inactive) and the GI50 (U-251) was 28.2 µM (inactive). For the same compound, the GI50 (HCT-116) was 37.5 µM (inactive), the GI50 (SW-620) was 59.7 µM (inactive) and the GI50 (IGROV-1) was 25.2 µM (inactive). For the same compound, the GI50 (DU-145) was > 100 µM (inactive), the GI50 (SK-MEL-28) was 58.1 µM (inactive) and the GI50 (CCRF-CEM) was 1.19 µM (inactive). For the same compound, the GI50 (MDA-MB-231) was 23 µM (inactive), the GI50 (SF-268) was 53.2 µM (inactive) and the GI50 (ACHN) was 61.1 µM (inactive). The GI50 (UO-31) was 43.8 µM (inactive), the GI50 (RXF 393) was 15.3 µM (inactive) and the GI50 (NCI/ADR-RES) was 13.7 µM (inactive). The GI50 (UACC-257) was 17.9 µM (inactive), the GI50 (A549) was 24.2 µM (inactive) and the GI50 (OVCAR-3) was 29.2 µM (inactive). For the same compound, the GI50 (Hs-578T) was 41.5 µM (inactive), the GI50 (BT-549) was 25.4 µM (inactive) and the GI50 (OVCAR-4) was 25.6 µM (inactive). The GI50 (KM12) was 38.3 µM (inactive).

Reference: ChEMBL document CHEMBL1201862, “PubChem BioAssay data set” (2004)
